The results in this text go back to patent publication US12668571B2, “Substituted 3-amino-4-methylbenzenesulfonamides as small molecule inhibitors of ubiquitin-specific protease 28” (Dana-Farber Cancer Institute, Inc., priority 2020, dated 2026).

The target of the first test is T1, USP28 (Homo sapiens, UniProt Q96RU2).
T1 sequence (Q96RU2 1-1077): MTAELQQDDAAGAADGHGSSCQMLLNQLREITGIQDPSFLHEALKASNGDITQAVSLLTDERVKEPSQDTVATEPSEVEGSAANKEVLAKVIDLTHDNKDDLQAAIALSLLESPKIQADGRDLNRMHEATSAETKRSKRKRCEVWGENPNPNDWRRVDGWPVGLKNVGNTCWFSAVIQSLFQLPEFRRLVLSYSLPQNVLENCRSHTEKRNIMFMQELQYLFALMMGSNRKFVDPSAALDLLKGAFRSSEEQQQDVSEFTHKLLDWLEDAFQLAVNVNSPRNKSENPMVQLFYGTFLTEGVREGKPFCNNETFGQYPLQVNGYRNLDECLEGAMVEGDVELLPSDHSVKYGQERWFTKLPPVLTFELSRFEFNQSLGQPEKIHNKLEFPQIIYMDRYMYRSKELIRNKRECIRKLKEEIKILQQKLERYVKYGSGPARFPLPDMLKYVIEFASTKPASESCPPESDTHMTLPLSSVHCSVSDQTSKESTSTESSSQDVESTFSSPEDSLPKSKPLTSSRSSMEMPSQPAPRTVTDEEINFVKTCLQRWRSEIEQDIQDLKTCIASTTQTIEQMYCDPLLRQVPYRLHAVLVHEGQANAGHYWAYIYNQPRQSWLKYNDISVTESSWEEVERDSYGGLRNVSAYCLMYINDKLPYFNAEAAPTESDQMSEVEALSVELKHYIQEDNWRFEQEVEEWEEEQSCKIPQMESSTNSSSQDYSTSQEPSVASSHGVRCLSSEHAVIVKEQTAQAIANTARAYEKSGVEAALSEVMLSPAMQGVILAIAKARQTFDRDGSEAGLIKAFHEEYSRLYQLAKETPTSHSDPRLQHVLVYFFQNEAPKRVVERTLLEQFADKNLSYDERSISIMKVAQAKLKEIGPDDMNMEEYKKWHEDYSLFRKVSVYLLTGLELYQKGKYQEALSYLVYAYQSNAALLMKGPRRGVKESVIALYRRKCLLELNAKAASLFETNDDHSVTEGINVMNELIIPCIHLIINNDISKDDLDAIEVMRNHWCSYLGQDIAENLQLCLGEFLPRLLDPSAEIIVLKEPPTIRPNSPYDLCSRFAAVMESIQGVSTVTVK
Description: Competitive activity-based protein profiling (target engagement, Ub-VME probe, Western blot). The test is classed as binding. The conditions noted are these: K562 cells lysed, treated with compound for 1 h, then incubated with Ub-VME. Here is the method: K562 cells were lysed and treated with indicated concentrations of compound 1 for 1 h followed by incubation with Ub-VME. Ub-VME covalently modifies USP28, resulting in higher MW band observed by Western blot.
Cells were pelleted, washed with PBS buffer, lysed on ice (20 mM Tris pH 8, 150 mM NaCl, 1% NP-40, 10% glycerol, 1 mM TCEP, phosphatase inhibitor cocktails (Sigma P5726 and Calbiochem 524624), and protease inhibitors (pepstatin, leupeptin, PMSF, and aprotinin), and clarified by centrifugation. Protein content was quantified by BCA and diluted to 2 mg/mL in lysis buffer. Compounds were added at desired concentrations and incubated at room temperature for […]. Samples were then supplemented with 2 uM […] and incubated at room temperature with shaking for 15 minutes. Reactions were quenched with 4×LDS sample buffer (Thermo Fisher B0007) supplemented with 10% BME, vortexed vigorously, and heated to 95° C. for 5 minutes. Samples were resolved by SDS-PAGE and analyzed by Western blot with the indicated antibodies.
In general terms: A western blot detects proteins with antibodies after separation by electrophoresis.
With `Cc1ccc(S(=O)(=O)N(C)C)cc1NC(=O)Cc1ccc(Cl)c(Cl)c1` [Compound 1], the “labeling of USP28 by covalent Ub-VME probe (Western blot, FIG. 2)” value is listed as “prevents labeling of USP28 by the covalent Ub-VME probe”.

For a further test, the target named is T1, USP28. The experiment in a line: Ubiquitin-Rhodamine110 assay. In kind it is biochemical. The conditions noted are these: USP28 at 1 nM, 30 minutes pre-incubation at room temperature, Ubiquitin-Rho110 substrate 125 nM. Here is the method: USP28 (at 1 nM) was pre-incubated with different concentrations of inhibitors or DMSO as a control in 50 mM Tris pH 8, 50 mM NaCl, 0.002% Tween-20, 5 mM DTT. Compounds and protein were incubated for 30 minutes at room temperature prior to the addition of Ubiquitin-Rho110 (Boston Biochem) substrate for a final concentration of 125 nM. The initial rate of the reaction was measured by collecting fluorescence data at one-minute interval over 30-minute period using a Clariostar® fluorescence plate reader at excitation and emission wavelength of 485 nm and 535 nm, respectively. The calculated initial rate values were plotted against inhibitor concentrations to determine IC50s. All the experimental data were plotted using GraphPad Prism®.
Usually IC50 stands for the concentration that gives 50% inhibition. A lower IC50 goes with greater potency. On to `CCc1ccc(S(=O)(=O)N(C)C)cc1NC(=O)Cc1ccc(Cl)c(Cl)c1` [Compound 17], for which the IC50 fell in the range of 1 to 10 µM.

As for `Cc1ccc(S(=O)(=O)N(C)C)cc1NC(=O)Cc1ccccc1` [Compound 2], the IC50 was 1 to 10 µM.

For the molecule `Cc1ccc(S(=O)(=O)N(C)C)cc1NC(=O)Cc1ccc([N+](=O)[O-])cc1` [Compound 4], the IC50 lay in the range of 10 to 100 µM.

`Cc1ccc(S(=O)(=O)N(C)C)cc1NC(=O)CCc1ccccc1` [Compound 7]: the IC50 is > 100 µM.

In the case of `Cc1ccc(S(=O)(=O)N2CCCCC2)cc1NC(=O)Cc1ccc(Cl)c(Cl)c1` [Compound 11], the IC50 is < 1 µM.

In the case of `Cc1ccc(S(=O)(=O)Nc2ccc(-n3ccnc3)cc2)cc1NC(=O)Cc1ccc(Cl)c(Cl)c1` [Compound 29], the IC50 was in the range of 1 to 10 µM.

Take `Cc1ccc(S(=O)(=O)Nc2ccc(N3CCN(C)CC3)cc2)cc1NC(=O)Cc1ccc(Cl)c(Cl)c1` [Compound 15]: the half-maximal inhibitory concentration (IC50) was < 1 µM.

For the molecule `Cc1ccc(S(=O)(=O)N(C)C)cc1NC(=O)CN1CCN(C)CC1` [Compound 10], the IC50 lay within 1 to 10 µM.

Regarding `CN(C)S(=O)(=O)c1ccc(NCc2ccccc2)c(NC(=O)Cc2ccc(Cl)c(Cl)c2)c1` [Compound 19], the IC50 is > 100 µM.

As for `Cc1ccc(S(=O)(=O)NCc2ccccc2)cc1NC(=O)Cc1ccc(Cl)c(Cl)c1` [Compound 14], the concentration for half-maximal inhibition (IC50) is < 1 µM.

As to `CN(C)S(=O)(=O)c1cccc(NC(=O)Cc2ccc(Cl)c(Cl)c2)c1` [Compound 13], the IC50 fell in the range of 10 to 100 µM.

As for `Cc1ccc(S(=O)(=O)N(C)C)cc1NC(=O)Cc1ccc(Cl)c(Cl)c1` [Compound 1], the IC50 is < 1 µM.

In the case of `Cc1ccc(S(=O)(=O)Nc2ccccc2)cc1NC(=O)Cc1ccc(Cl)c(Cl)c1` [Compound 12], the IC50 was < 1 µM.

For `Cc1ccc(S(=O)(=O)N(C)C)cc1C(=O)NCc1ccc(Cl)c(Cl)c1` [Compound 21], the concentration for half-maximal inhibition (IC50) was < 1 µM.

For `CN(C)S(=O)(=O)c1ccc(Cl)c(NC(=O)Cc2ccc(Cl)c(Cl)c2)c1` [Compound 16], the IC50 is < 1 µM.

In the case of `Cc1ccc(S(=O)(=O)N(C)C)cc1C(=O)NCc1cccc(Cl)c1` [Compound 20], the half-maximal inhibitory concentration (IC50) was < 1 µM.

`Cc1ccc(S(=O)(=O)N(C)C)cc1NC(=O)Cc1cccc(C(F)(F)F)c1` [Compound 3] came in with an IC50 of 1 to 10 µM.

Molecule `CN(C)S(=O)(=O)c1ccc(OC(F)(F)F)c(NC(=O)Cc2ccc(Cl)c(Cl)c2)c1` [Compound 18] came in with an IC50 of 10 to 100 µM.

With `Cc1ccc(S(=O)(=O)N(C)C)cc1NC(=O)Cc1ccc(O)cc1` [Compound 5], the IC50 was > 100 µM.

`Cc1ccc(C(=O)NCc2ccccc2)cc1NC(=O)Cc1ccc(Cl)c(Cl)c1` [Compound 22] yielded a half-inhibitory concentration (IC50) of 1 to 10 µM.

As to `CN(C)S(=O)(=O)c1ccc2[nH]c(Cc3ccc(Cl)c(Cl)c3)nc2c1` [Compound 27], the IC50 is > 100 µM.

For `Cc1ccc(S(=O)(=O)NCc2ccccc2)cc1NC(=O)c1ccc(Cl)c(Cl)c1` [Compound 24], the IC50 is < 1 µM.

As to `CCN(CC)S(=O)(=O)c1cccc(NC(=O)Cc2ccc(Cl)c(Cl)c2)c1` [Compound 8], the IC50 was in the range of 1 to 10 µM.

For `CS(=O)(=O)c1cccc(NC(=O)Cc2ccc(Cl)c(Cl)c2)c1` [Compound 6], the IC50 was 10 to 100 µM.

`Cc1ccc(S(=O)(=O)N(C)C)cc1NC(=O)Cc1ccc(-c2ccccc2)cc1` [Compound 9]: the 50% inhibitory concentration (IC50) is > 100 µM.

Take `Cc1ccc(S(=O)(=O)Nc2ccccc2)cc1NC(=O)Cc1ccc2ccccc2c1` [Compound 23]: the IC50 is < 1 µM.
